Holding throughout (type): cell-based
One experiment has as its target T1, human TLR7 (Homo sapiens, UniProt Q9NYK1).
T1 construct: host or cells: HEK-Blue cells
T1 sequence (Q9NYK1 27-1049): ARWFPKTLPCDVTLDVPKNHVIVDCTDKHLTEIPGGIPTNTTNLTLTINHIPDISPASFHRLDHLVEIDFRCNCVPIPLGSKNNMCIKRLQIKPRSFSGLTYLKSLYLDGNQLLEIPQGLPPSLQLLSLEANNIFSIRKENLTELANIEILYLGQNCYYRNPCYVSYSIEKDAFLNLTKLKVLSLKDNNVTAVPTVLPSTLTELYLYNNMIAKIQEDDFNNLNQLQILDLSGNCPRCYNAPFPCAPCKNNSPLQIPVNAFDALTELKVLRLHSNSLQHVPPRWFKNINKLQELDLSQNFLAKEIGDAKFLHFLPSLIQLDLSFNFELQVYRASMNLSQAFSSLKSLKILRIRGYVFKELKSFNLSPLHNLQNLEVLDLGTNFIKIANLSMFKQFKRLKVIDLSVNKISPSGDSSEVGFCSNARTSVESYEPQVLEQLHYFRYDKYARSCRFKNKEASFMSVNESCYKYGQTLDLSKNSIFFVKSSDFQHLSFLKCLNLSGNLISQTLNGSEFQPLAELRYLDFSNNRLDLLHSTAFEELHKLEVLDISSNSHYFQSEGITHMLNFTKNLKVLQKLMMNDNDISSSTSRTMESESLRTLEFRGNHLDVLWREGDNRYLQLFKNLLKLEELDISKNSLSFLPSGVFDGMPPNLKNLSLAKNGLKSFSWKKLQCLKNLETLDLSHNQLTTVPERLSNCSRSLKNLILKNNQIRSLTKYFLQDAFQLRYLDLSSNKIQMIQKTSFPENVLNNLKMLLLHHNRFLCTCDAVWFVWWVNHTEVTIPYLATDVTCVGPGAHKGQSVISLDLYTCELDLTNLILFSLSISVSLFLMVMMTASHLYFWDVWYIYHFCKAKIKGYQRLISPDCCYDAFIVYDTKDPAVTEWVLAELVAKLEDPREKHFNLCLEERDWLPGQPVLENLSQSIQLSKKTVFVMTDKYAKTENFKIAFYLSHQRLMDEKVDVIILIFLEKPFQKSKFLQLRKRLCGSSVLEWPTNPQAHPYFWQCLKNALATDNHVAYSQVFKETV
Briefly: TLR7 inhibition reporter assay (HEK-Blue SEAP reporter, gardiquimod stimulation). The settings on record: HEK-Blue cells overexpressing human TLR7, SEAP reporter, gardiquimod 7.5 μM, 22 hour incubation. A digest of the protocol: (§1)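 Human TLR7/8/9 HEK-Blue reporter lines; dose range 0.05 nM–50 μM; 30 min RT preincubation; stimulus gardiquimod 7.5 μM / R848 15.9 μM / ODN2006 5 nM respectively; 22 h, 37 °C; SEAP detected colorimetrically.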
For orientation: Reporter assays use an easily measured gene product as a stand-in for the process of interest.

A further experiment addresses T2, human TLR9 (Homo sapiens, UniProt Q9NR96).
T2 construct: host or cells: HEK-Blue cells
T2 sequence (Q9NR96 26-1032): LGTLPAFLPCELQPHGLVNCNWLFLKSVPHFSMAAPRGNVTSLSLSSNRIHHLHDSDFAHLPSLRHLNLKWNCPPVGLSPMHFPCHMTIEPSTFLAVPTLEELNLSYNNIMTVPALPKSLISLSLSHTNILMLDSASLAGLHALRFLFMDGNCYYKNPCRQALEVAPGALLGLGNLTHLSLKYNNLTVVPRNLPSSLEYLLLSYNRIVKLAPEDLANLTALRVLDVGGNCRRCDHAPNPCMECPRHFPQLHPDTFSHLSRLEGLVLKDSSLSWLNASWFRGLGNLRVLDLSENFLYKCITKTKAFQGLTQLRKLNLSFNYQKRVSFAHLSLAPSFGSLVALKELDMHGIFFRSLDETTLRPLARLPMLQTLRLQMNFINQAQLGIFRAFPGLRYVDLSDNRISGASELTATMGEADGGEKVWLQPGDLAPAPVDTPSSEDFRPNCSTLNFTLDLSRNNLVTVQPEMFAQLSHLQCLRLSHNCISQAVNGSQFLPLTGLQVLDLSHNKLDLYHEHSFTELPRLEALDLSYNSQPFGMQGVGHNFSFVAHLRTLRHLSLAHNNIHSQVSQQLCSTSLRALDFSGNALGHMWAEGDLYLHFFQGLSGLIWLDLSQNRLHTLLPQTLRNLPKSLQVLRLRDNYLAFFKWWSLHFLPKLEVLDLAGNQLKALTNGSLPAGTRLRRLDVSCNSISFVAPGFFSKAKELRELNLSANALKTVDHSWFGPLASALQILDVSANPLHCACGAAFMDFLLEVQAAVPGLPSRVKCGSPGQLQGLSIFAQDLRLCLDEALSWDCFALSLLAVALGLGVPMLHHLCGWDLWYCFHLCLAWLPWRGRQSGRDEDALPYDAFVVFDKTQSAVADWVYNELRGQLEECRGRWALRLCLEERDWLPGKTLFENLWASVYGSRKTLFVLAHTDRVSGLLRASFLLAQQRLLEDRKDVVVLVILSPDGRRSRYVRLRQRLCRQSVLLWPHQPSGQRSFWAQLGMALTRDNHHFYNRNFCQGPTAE
Briefly: TLR9 inhibition reporter assay (HEK-Blue SEAP reporter, ODN2006 stimulation). The settings on record: HEK-Blue cells overexpressing human TLR9, SEAP reporter, ODN2006 5 nM, 22 hour incubation. A digest of the protocol:
as §1

The target of the next experiment is T3, human TLR8 (Homo sapiens, UniProt Q9NR97).
T3 construct: host or cells: HEK-Blue cells
T3 sequence (Q9NR97 27-1041): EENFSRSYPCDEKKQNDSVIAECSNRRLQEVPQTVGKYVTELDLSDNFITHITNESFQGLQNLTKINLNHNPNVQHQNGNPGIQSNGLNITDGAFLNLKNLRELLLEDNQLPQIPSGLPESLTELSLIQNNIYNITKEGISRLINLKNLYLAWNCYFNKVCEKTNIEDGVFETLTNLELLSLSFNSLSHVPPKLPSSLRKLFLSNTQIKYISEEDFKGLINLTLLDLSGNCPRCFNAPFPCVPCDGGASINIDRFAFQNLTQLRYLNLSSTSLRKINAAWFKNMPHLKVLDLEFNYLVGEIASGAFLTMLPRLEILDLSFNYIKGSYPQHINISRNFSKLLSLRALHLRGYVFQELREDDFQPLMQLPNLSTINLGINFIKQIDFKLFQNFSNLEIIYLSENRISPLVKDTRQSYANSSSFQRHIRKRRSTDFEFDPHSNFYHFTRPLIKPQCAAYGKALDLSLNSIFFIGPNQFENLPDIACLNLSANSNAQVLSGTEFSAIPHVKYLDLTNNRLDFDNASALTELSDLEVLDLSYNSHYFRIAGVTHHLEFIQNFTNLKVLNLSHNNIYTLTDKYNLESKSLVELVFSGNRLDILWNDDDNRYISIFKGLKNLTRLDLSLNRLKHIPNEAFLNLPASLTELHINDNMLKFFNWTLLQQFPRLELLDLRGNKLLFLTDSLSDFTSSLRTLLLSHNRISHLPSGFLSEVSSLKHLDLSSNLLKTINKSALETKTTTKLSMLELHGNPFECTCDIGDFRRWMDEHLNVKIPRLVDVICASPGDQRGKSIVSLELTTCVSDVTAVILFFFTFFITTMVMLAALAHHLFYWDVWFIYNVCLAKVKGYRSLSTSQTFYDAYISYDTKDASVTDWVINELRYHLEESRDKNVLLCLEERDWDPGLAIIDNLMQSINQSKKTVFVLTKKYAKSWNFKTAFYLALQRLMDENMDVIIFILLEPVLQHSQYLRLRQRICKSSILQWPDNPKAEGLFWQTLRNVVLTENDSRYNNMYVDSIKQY
Briefly: TLR8 inhibition reporter assay (HEK-Blue SEAP reporter, R848 stimulation). The settings on record: HEK-Blue cells overexpressing human TLR8, SEAP reporter, R848 15.9 μM, 22 hour incubation. A digest of the protocol: as §1

For 13 molecules, IC50 results are on record in patent US11447466B2, “Substituted indole compounds useful as inhibitors of TLR7/8/9” (BRISTOL-MYERS SQUIBB COMPANY, priority 2017, dated 2022).

What is called IC50 is the concentration at which inhibition is half-maximal. Higher therefore signals weaker potency.

As for `Cc1c(-c2[nH]c3ccc(C4CCN(CC(=O)N(C)C)CC4)cc3c2C(C)C)cn(C)c(=O)c1Cl` [Example 152, 2-(4-(2-(5-chloro-1,4-dimethyl-6-oxo-1,6-dihydropyridin-3-yl)-3-isopropyl-1H-indol-5-yl)piperidin-1-yl)-N,N-dimethylacetamide], the IC50 is 1.4 nM on human TLR7, 16600 nM at human TLR9 and 4.6 nM at human TLR8.
For `Cc1c(-c2[nH]c3ccc(C4CCNCC4)cc3c2C(C)C)cn(C)c(=O)c1C#N` [Example 24, 5-(3-isopropyl-5-(piperidin-4-yl)-1H-indol-2-yl)-1,4-dimethyl-2-oxo-1,2-dihydropyridine-3-carbonitrile], the figures for the IC50 against human TLR7, against human TLR9 and against human TLR8 were 75.9 nM, 3760 nM and 10.7 nM, respectively.
For the molecule `CC(C)c1c(-c2cc(-c3cncnc3)c(=O)n(C)c2)[nH]c2ccc(C3CCN(C(C)C)CC3)cc12` [Example 244, 5-(3-isopropyl-5-(1-isopropylpiperidin-4-yl)-1H-indol-2-yl)-1-methyl-3-(pyrimidin-5-yl)pyridin-2(1H)-one], the IC50 against human TLR7 amounted to 6 nM; against human TLR9 it was 954 nM; against human TLR8 it was 1.8 nM.
With `CC(C)c1cc(-c2[nH]c3ccc(C4CCNCC4)cc3c2C(C)C)cn(C)c1=O` [Example 66, 3-isopropyl-5-(3-isopropyl-5-(piperidin-4-yl)-1H-indol-2-yl)-1-methylpyridin-2(1H)-one], the values for the IC50 against human TLR7, at human TLR9 and against human TLR8 were 12.6 nM, 764 nM and 70.5 nM, respectively.
`CCc1cc(-c2[nH]c3ccc(C4CCNCC4)cc3c2C(C)C)c(C)n(C)c1=O` [Example 25, 3-ethyl-5-(3-isopropyl-5-(piperidin-4-yl)-1H-indol-2-yl)-1,6-dimethylpyridin-2(1H)-one]: the concentration for half-maximal inhibition (IC50) against human TLR7 worked out at 40.3 nM; at human TLR9 it was 1370 nM; against human TLR8, 7.8 nM.
As for `CCCN1CCC(c2ccc3[nH]c(-c4cc(-c5cnc(C)nc5)c(=O)n(C)c4)c(C(C)C)c3c2)CC1` [Example 337, 5-(3-isopropyl-5-(1-propylpiperidin-4-yl)-1H-indol-2-yl)-1-methyl-3-(2-methylpyrimidin-5-yl)pyridin-2(1H)-one], the values for the IC50 on human TLR7, against human TLR9 and on human TLR8 were 1.8 nM, 2490 nM and 11.9 nM, respectively.
For the molecule `Cc1ccc(-c2cc(-c3[nH]c4ccc(C5CCNCC5)cc4c3C(C)C)cn(C)c2=O)cc1` [Example 55, 5-(3-isopropyl-5-(piperidin-4-yl)-1H-indol-2-yl)-1-methyl-3-(p-tolyl) pyridin-2(1H)-one], the IC50 was found to be 13.9 nM against human TLR7, 2290 nM against human TLR9 and 203 nM on human TLR8.
For `CC(C)c1c(-c2ccc(=O)n(C)c2)[nH]c2ccc(C3CCN(C4CCOC4)CC3)cc12` (stereo not drawn) [Example 177, 5-(3-isopropyl-5-(1-(tetrahydrofuran-3-yl)piperidin-4-yl)-1H-indol-2-yl)-1-methylpyridin-2(1H)-one], the IC50 on human TLR7 came to 154 nM; against human TLR9, 9210 nM; against human TLR8 it was 51.9 nM.
On to `Cc1cc(-c2[nH]c3ccc(C4CCN(CC5(O)CCOCC5)CC4)cc3c2C(C)C)c(C)n(C)c1=O` [Example 320, 5-(5-(1-((4-hydroxytetrahydro-2H-pyran-4-yl)methyl)piperidin-4-yl)-3-isopropyl-1H-indol-2-yl)-1,3,6-trimethylpyridin-2(1H)-one], for which the values for the IC50 against human TLR7, on human TLR9 and against human TLR8 were 14.2 nM, 2310 nM and 1.7 nM, respectively.
With `CNC(=O)CN1CCC(c2ccc3[nH]c(-c4cn(C)c(=O)c(C#N)c4C)c(C(C)C)c3c2)CC1` [Example 146, 2-(4-(2-(5-cyano-1,4-dimethyl-6-oxo-1,6-dihydropyridin-3-yl)-3-isopropyl-1H-indol-5-yl)piperidin-1-yl)-N-methylacetamide], the IC50 on human TLR7 came to 38.8 nM; against human TLR9, 6990 nM; on human TLR8, 4.5 nM.
On to `CCCN1CCC(c2ccc3[nH]c(-c4cn(C)c(=O)c(Cl)c4C)c(C(C)C)c3c2)CC1` [Example 242, 3-chloro-5-(3-isopropyl-5-(1-propylpiperidin-4-yl)-1H-indol-2-yl)-1,4-dimethylpyridin-2(1H)-one], for which the IC50 was found to be 3.2 nM against human TLR7, 2680 nM against human TLR9 and 5.1 nM against human TLR8.
Take `CC(=O)N1CC(N2CCC(c3ccc4[nH]c(-c5cn(C)c(=O)c(Cl)c5C)c(C(C)C)c4c3)CC2)C1` [Example 174, 5-(5-(1-(1-acetylazetidin-3-yl)piperidin-4-yl)-3-isopropyl-1H-indol-2-yl)-3-chloro-1,4-dimethylpyridin-2(1H)-one]: the IC50 against human TLR7 was 15.7 nM; against human TLR9 it was not below 50000 nM; against human TLR8 it was 44.8 nM.
Take `CCCN1CCC(c2ccc3[nH]c(-c4cn(C)c(=O)c(-c5cnn(C)c5)c4C)c(C(C)C)c3c2)CC1` [Example 333, 5-(3-isopropyl-5-(1-propylpiperidin-4-yl)-1H-indol-2-yl)-1,4-dimethyl-3-(1-methyl-1H-pyrazol-4-yl)pyridin-2(1H)-one]: the IC50 turned out to be 92.2 nM at human TLR7, 3010 nM at human TLR9 and 11.1 nM against human TLR8.
